Laboratory results reported in US12077503B2, “Substituted cyclic amides and their use as herbicides” (FMC CORPORATION, priority 2015, dated 2024).

Tests used:
Assay type in all cases: in vivo
[1] = test system: redroot pigweed (Amaranthus retroflexus); test: Test G Pre-Emergence Protocol; settings: Amaranthus retroflexus, pre-emergence, 312 h, evaluated after 13 days
In short: (§1)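 Herbicidal effect was rated 13 days post-application on a scale where 100 equals total damage. Spraying took place the day after sowing, using 15.625, 62.5 or 250 g/ha of compound in a 50:50 acetone/water solution with 0.5% Tween 20.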

[2] = test system: velvetleaf (Abutilon theophrasti); test: Test G Pre-Emergence Protocol; settings: Abutilon theophrasti, pre-emergence, 312 h, evaluated after 13 days
In short: as §1

[3] = test system: corn (Zea mays); test: Test G Pre-Emergence Protocol; settings: Zea mays, pre-emergence, 312 h, evaluated after 13 days
In short: as §1

[4] = test system: giant foxtail (Setaria faberi); test: Test G Pre-Emergence Protocol; settings: Setaria faberi, pre-emergence, 312 h, evaluated after 13 days
In short: as §1

[5] = test system: barnyardgrass (Echinochloa crus-galli); test: Test G Pre-Emergence Protocol; settings: Echinochloa crus-galli, pre-emergence, 312 h, evaluated after 13 days
In short: as §1

[6] = test system: ivy-leaved morning glory (Ipomoea hederacea); test: Test G Pre-Emergence Protocol; settings: Ipomoea, pre-emergence, 312 h, evaluated after 13 days
In short: as §1

[7] = test system: redroot pigweed (Amaranthus retroflexus); test: Test G Post-Emergence Protocol; settings: Amaranthus retroflexus, post-emergence, 312 h
In short: (§2)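 Eight days post-sowing, plants received a spray of test compound (acetone/water 50:50, 0.5% Tween 20) at 15.625, 62.5 or 250 g/ha. Glasshouse regime thereafter: 24/16 °C, 14 h light, 65% humidity. Assessment after 13 days on a 0–100 damage scale.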

[8] = test system: velvetleaf (Abutilon theophrasti); test: Test G Post-Emergence Protocol; settings: Abutilon theophrasti, post-emergence, 312 h
In short: as §2

[9] = test system: corn (Zea mays); test: Test G Post-Emergence Protocol; settings: Zea mays, post-emergence, 312 h
In short: as §2

[10] = test system: giant foxtail (Setaria faberi); test: Test G Post-Emergence Protocol; settings: Setaria faberi, post-emergence, 312 h
In short: as §2

[11] = test system: barnyardgrass (Echinochloa crus-galli); test: Test G Post-Emergence Protocol; settings: Echinochloa crus-galli, post-emergence, 312 h
In short: as §2

[12] = test system: ivy-leaved morning glory (Ipomoea hederacea); test: Test G Post-Emergence Protocol; settings: Ipomoea, post-emergence, 312 h
In short: as §2

## Cc1ccc(NC(=O)[C@@H]2C(=O)N(C)C[C@H]2c2ccc(C(F)(F)F)cc2)nn1 (racemic) [Compound 1543]
[1]; 15.625 g ai/ha, read-out: Pigweed, Redroot damage rating (100=total damage to plant; 0=no damage to plant)
  pest or weed control at 15.625 g/ha: 0%
[1]; 62.5 g ai/ha, 100=total damage to plant, 0=no damage to plant, read-out: plant damage rating, Pigweed, Redroot
  pest or weed control at 62.5 g/ha: 0%
[1]; 250 g ai/ha, read-out: Pigweed, Redroot damage rating (100=total damage to plant; 0=no damage to plant)
  pest or weed control at 250 g/ha: 0%
[2]; 15.625 g ai/ha, read-out: Velvetleaf damage rating (100=total damage to plant; 0=no damage to plant)
  pest or weed control at 15.625 g/ha: 0%
[2]; 62.5 g ai/ha, 100=total damage to plant, 0=no damage to plant, read-out: plant damage rating, Velvetleaf
  pest or weed control at 62.5 g/ha: 0%
[2]; 250 g ai/ha, read-out: Velvetleaf damage rating (100=total damage to plant; 0=no damage to plant)
  pest or weed control at 250 g/ha: 0%
[3]; 15.625 g ai/ha, read-out: Corn damage rating (100=total damage to plant; 0=no damage to plant)
  plant injury at 15.625 g/ha: 0%
[3]; 62.5 g ai/ha, 100=total damage to plant, 0=no damage to plant, read-out: plant damage rating, Corn
  plant injury at 62.5 g/ha: 0%
[3]; 250 g ai/ha, read-out: Corn damage rating (100=total damage to plant; 0=no damage to plant)
  plant injury at 250 g/ha: 0%
[4]; 15.625 g ai/ha, read-out: Foxtail, Giant damage rating (100=total damage to plant; 0=no damage to plant)
  pest or weed control at 15.625 g/ha: 0%
[4]; 62.5 g ai/ha, 100=total damage to plant, 0=no damage to plant, read-out: plant damage rating, Foxtail, Giant
  pest or weed control at 62.5 g/ha: 0%
[4]; 250 g ai/ha, read-out: Foxtail, Giant damage rating (100=total damage to plant; 0=no damage to plant)
  pest or weed control at 250 g/ha: 0%
[5]; 15.625 g ai/ha, read-out: Barnyard grass damage rating (100=total damage to plant; 0=no damage to plant)
  pest or weed control at 15.625 g/ha: 0%
[5]; 62.5 g ai/ha, 100=total damage to plant, 0=no damage to plant, read-out: plant damage rating, Barnyardgrass
  pest or weed control at 62.5 g/ha: 0%
[5]; 250 g ai/ha, read-out: Barnyardgrass damage rating (100=total damage to plant; 0=no damage to plant)
  pest or weed control at 250 g/ha: 0%
[6]; 15.625 g ai/ha, read-out: Morning-glory, Ivy-leaved damage rating (100=total damage to plant; 0=no damage to plant)
  pest or weed control at 15.625 g/ha: 0%
[6]; 62.5 g ai/ha, 100=total damage to plant, 0=no damage to plant, read-out: plant damage rating, Morningglory, Ivy-leaved
  pest or weed control at 62.5 g/ha: 0%
[6]; 250 g ai/ha, read-out: Morningglory, Ivy-leaved damage rating (100=total damage to plant; 0=no damage to plant)
  pest or weed control at 250 g/ha: 0%
[7]; 15.625 g ai/ha, evaluated after 13 days (100=total damage to plant; 0=no damage to plant), read-out: Pigweed, Redroot damage rating
  pest or weed control at 15.625 g/ha: 0%
[7]; 62.5 g ai/ha, evaluated after 13 days, read-out: Pigweed, Redroot damage rating (100=total damage to plant; 0=no damage to plant)
  pest or weed control at 62.5 g/ha: 0%
[7]; 250 g ai/ha, evaluated after 13 days, read-out: damage to plant, Pigweed, Redroot (100=total damage to plant; 0=no damage to plant)
  pest or weed control at 250 g/ha: 40%
[8]; 15.625 g ai/ha, evaluated after 13 days (100=total damage to plant; 0=no damage to plant), read-out: Velvetleaf damage rating
  pest or weed control at 15.625 g/ha: 0%
[8]; 62.5 g ai/ha, evaluated after 13 days, read-out: Velvetleaf damage rating (100=total damage to plant; 0=no damage to plant)
  pest or weed control at 62.5 g/ha: 0%
[8]; 250 g ai/ha, evaluated after 13 days, read-out: damage to plant, Velvetleaf (100=total damage to plant; 0=no damage to plant)
  pest or weed control at 250 g/ha: 30%
[9]; 15.625 g ai/ha, evaluated after 13 days (100=total damage to plant; 0=no damage to plant), read-out: Corn damage rating
  plant injury at 15.625 g/ha: 0%
[9]; 62.5 g ai/ha, evaluated after 13 days, read-out: Corn damage rating (100=total damage to plant; 0=no damage to plant)
  plant injury at 62.5 g/ha: 0%
[9]; 250 g ai/ha, evaluated after 13 days, read-out: damage to plant, Corn (100=total damage to plant; 0=no damage to plant)
  plant injury at 250 g/ha: 10%
[10]; 15.625 g ai/ha, evaluated after 13 days (100=total damage to plant; 0=no damage to plant), read-out: Foxtail, Giant damage rating
  pest or weed control at 15.625 g/ha: 0%
[10]; 62.5 g ai/ha, evaluated after 13 days, read-out: Foxtail, Giant damage rating (100=total damage to plant; 0=no damage to plant)
  pest or weed control at 62.5 g/ha: 0%
[10]; 250 g ai/ha, evaluated after 13 days, read-out: damage to plant, Foxtail, Giant (100=total damage to plant; 0=no damage to plant)
  pest or weed control at 250 g/ha: 20%
[11]; 15.625 g ai/ha, evaluated after 13 days (100=total damage to plant; 0=no damage to plant), read-out: Barnyardgrass damage rating
  pest or weed control at 15.625 g/ha: 0%
[11]; 62.5 g ai/ha, evaluated after 13 days, read-out: Barnyardgrass damage rating (100=total damage to plant; 0=no damage to plant)
  pest or weed control at 62.5 g/ha: 0%
[11]; 250 g ai/ha, evaluated after 13 days, read-out: damage to plant, Barnyardgrass (100=total damage to plant; 0=no damage to plant)
  pest or weed control at 250 g/ha: 0%
[12]; 15.625 g ai/ha, evaluated after 13 days (100=total damage to plant; 0=no damage to plant), read-out: Morningglory, Ivy-leaved damage rating
  pest or weed control at 15.625 g/ha: 0%
[12]; 62.5 g ai/ha, evaluated after 13 days, read-out: Morningglory, Ivy-leaved damage rating (100=total damage to plant; 0=no damage to plant)
  pest or weed control at 62.5 g/ha: 0%
[12]; 250 g ai/ha, evaluated after 13 days, read-out: damage to plant, Morningglory, Ivy-leaved (100=total damage to plant; 0=no damage to plant)
  pest or weed control at 250 g/ha: 30%
